{
  "source": "paper PMC6169318",
  "about": "(Organic & biomolecular chemistry, 2017)",
  "key": {"Sco GlgEI-V279S [1]": {"molecular_target": "T1, Sco GlgEI-V279S (Streptomyces coelicolor, UniProt Q9L1K2, V279S)", "T1 sequence (Q9L1K2 whole entry V279S)": "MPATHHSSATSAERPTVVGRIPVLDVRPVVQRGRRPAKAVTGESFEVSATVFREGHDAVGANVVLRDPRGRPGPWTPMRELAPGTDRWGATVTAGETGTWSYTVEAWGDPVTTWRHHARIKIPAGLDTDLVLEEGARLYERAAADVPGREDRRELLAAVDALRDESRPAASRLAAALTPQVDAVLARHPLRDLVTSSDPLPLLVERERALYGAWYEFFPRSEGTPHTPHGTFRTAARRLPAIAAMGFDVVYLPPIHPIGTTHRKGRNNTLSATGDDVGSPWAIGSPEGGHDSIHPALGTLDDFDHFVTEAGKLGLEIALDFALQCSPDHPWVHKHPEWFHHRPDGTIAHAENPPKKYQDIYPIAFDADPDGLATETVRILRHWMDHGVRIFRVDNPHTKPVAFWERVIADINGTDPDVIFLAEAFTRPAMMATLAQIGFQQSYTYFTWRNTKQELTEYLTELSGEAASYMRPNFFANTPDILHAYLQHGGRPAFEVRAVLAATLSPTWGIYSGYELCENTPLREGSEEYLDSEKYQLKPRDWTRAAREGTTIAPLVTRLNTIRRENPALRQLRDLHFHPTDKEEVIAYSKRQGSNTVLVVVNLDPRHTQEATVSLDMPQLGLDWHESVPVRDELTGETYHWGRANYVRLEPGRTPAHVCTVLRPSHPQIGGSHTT", "details": "earlier work; cited from earlier work"}, "Sco GlgEI-V279S [2]": {"molecular_target": "T1, Sco GlgEI-V279S", "details": "ratio of Ki values"}},
  "data": [
    {"smiles": "OC[C@H]1N[C@H](CO)[C@@H](O[C@H]2O[C@H](CO)[C@@H](O)[C@H](O)[C@H]2O)[C@@H]1O", "note": "[Compound 4, 2,5-dideoxy-3-O-α-D-glucopyranosyl-2,5-imino-D-mannitol]", "values": [
      {"measurement": "inhibitory activity against Sco GlgEI-V279S (in words)", "setting": "Sco GlgEI-V279S [1]", "result": "moderate inhibitory activity"}
    ]},
    {"smiles": "O=P(O)(O)CN1C(CO)C(O)C(O[C@H]2O[C@H](CO)[C@@H](O)[C@H](O)[C@H]2O)C1CO", "note": "(stereo partly drawn) [Compound 5, ((3-Hydroxy-2,5-bis(hydroxymethyl)-(3-O-α-D-glucopyranosyl)pyrrolidin-1-yl)methyl)phosphonic acid]", "values": [
      {"measurement": "fold more potent than previously reported inhibitor 4", "setting": "Sco GlgEI-V279S [2]; 5 versus 4", "result": 2, "unit": "fold"},
      {"measurement": "fold more potent than two carbon phosphonate 6", "setting": "Sco GlgEI-V279S [2]; 5 versus 6", "result": 2, "unit": "fold"}
    ]}
  ]
}
